Experimental data taken from US20150315188A1, “COMPOUNDS AND METHODS FOR TREATMENT OF HYPERTENSION” (MEDIVATION TECHNOLOGIES, INC., priority 2012, published 2015).

Experiments:
[1] = biological target: T1, Human adrenergic α1B receptor (Homo sapiens, UniProt P35368); test: Radioligand binding, adrenergic α1B (Protocol Group B); design: purchased Milipore (Millipore); conditions: for inhibition at 0.0032 µM: 3.2 nM compound, read-out: Percentage inhibition of ligand binding, Adrenergic α1B, 3.2 nM; for inhibition at 0.3 µM: 0.3 μM compound, read-out: Percentage inhibition of ligand binding, Adrenergic α1B (0.3 μM); for inhibition at 0.32 µM: 0.32 μM compound, read-out: Percentage inhibition of ligand binding, Adrenergic α1B, 0.32 μM; for inhibition at 1 µM: 1 μM compound, read-out: Percentage inhibition of ligand binding, Adrenergic α1B, 1 μM; for Ki: estimated Ki
T1 sequence (P35368 1-520): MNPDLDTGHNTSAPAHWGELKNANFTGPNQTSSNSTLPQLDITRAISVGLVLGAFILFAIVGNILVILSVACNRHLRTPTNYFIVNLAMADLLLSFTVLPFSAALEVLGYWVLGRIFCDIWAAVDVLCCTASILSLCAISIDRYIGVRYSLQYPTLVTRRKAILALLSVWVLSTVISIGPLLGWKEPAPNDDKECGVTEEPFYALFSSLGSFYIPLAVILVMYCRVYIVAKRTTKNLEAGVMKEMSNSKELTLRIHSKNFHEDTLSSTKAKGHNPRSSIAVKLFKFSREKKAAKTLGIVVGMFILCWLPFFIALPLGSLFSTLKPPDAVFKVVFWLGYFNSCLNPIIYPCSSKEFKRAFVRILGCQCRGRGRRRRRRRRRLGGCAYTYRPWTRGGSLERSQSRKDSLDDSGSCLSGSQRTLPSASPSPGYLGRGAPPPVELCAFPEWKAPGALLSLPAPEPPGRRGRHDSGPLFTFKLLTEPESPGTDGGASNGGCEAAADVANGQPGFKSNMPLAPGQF
In short: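 Recombinant human α1B membranes incubated with test compound and 0.3 nM [3H]prazosin, 60 min at 25 °C, in 50 mM Tris-HCl pH 7.4, 10 mM MgCl2, 1 mM EDTA; nonspecific binding with 10 μM prazosin. Filter-bound radioactivity counted; values are % inhibition of specific binding or estimated Ki.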

[2] = biological target: T1, Human adrenergic α1B receptor; test: β-Arrestin GPCR functional assay, adrenergic α1B (Protocol B); assay type: cell-based; conditions: for inhibition at 0.1 µM: 0.1 μM compound; for IC50: β-arrestin, antagonist vs nor-epinephrine EC80
Experimental: (§1) To evaluate the activity of compounds in β-Arrestin GPCR functional assays, recombinant CHO cell line (DiscoveRX), over expressed with human adrenergic α1B receptor were used. The experiment was done with a kit of DiscoveRX as per recommended protocol of the supplier. Cells were harvested from culture flask using cell dissociation solution (CDS) and plated at a density of 12,000 cells/well in CP reagent (supplied with the kit) in a half area 96-well white polystyrene plate. After 24 h incubation at 37° C., compounds at various concentrations in 1% (final) DMSO were charged to the cells for 30 min at 37° C. Active nor-epinephrine (-NE) at its EC80 concentrations (50 nM) were then added to the cells and incubated for another 90 min at 37° C. Detection mix was prepared by mixing Path Hunter cell assay buffer, Emerald II solution and Galactone star solution in a ratio of 19:5:1 and incubated with the cells for 60 min at RT in the dark. The reading was taken in Envision at luminescence mode. Biochemical assay results are presented as the percent Inhibition in Table B2a, or IC50 values in Table B2b.

[3] = biological target: T2, Human adrenergic α2A receptor (Homo sapiens, UniProt P08913); test: β-Arrestin GPCR functional assay, adrenergic α2A (Protocol B); assay type: cell-based; conditions: for inhibition at 0.1 µM: 0.1 μM compound; for inhibition at 0.1 µM / inhibition at 0.3 µM: nor-epinephrine at EC80 (270 nM), read-out: Percentage inhibition, Adrenergic α2A; for inhibition at 0.3 µM: 0.3 μM compound; for IC50: β-arrestin, antagonist vs nor-epinephrine EC80
T2 sequence (P08913 1-465): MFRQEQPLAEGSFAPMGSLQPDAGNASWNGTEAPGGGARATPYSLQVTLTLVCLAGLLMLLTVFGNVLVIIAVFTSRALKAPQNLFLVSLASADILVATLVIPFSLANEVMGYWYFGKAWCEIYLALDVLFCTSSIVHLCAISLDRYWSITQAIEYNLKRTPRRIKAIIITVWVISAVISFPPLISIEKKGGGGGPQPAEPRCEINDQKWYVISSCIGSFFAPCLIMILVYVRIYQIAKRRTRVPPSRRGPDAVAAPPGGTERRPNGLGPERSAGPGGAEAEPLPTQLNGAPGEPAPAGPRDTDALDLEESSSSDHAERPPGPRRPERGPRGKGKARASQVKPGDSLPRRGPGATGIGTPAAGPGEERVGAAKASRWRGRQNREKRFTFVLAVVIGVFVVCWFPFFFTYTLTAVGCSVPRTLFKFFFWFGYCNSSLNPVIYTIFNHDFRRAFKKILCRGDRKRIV
Experimental: as §1, with “α2A” for “α1B”, “with” for “with a”, “(270” for “(50”, “mixing of” for “mixing”

[4] = biological target: T2, Human adrenergic α2A receptor; test: Radioligand binding, adrenergic α2A (Protocol Group B); design: purchased Milipore (Millipore); conditions: for inhibition at 0.3 µM: 0.3 μM compound, read-out: Percentage inhibition of ligand binding, Adrenergic α2A (0.3 μM); for inhibition at 1 µM: 1 μM compound, read-out: Percentage inhibition of ligand binding, Adrenergic α2A, 1 μM; for inhibition at 3.2 µM: 3.2 μM compound, read-out: Percentage inhibition of ligand binding, Adrenergic α2A, 3.2 μM; for Ki: estimated Ki
In short: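 Membranes from recombinant cells expressing the receptor, in 50 mM Tris-HCl pH 7.4 with 5 mM MgCl2, 1 mM CaCl2, 0.2% BSA; compounds incubated with 2 nM [^3H]MK-912 for 60 min at 25° C. Nonspecific binding defined by 10 μM rauwolscine; filtration, counting; percent inhibition of specific binding, or estimated Ki.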

[5] = nor-epinephrine at EC80 (50 nM), read-out: Percentage inhibition, Adrenergic α1B
[6] = 10 nM compound, concentration series, 0.01 µM
[7] = 0.032 μM compound, concentration series, 0.032 µM
[8] = 0.1 μM compound, Protocol Group B, 0.1 µM

SMILES | inhibition at 0.0032 µM ([1]; concentration series) [%] | inhibition at 0.3 µM ([1]; Protocol Group B) [%] | inhibition at 0.32 µM ([1]; concentration series) [%] | inhibition at 1 µM ([1]; concentration series) [%] | Ki ([1]; Protocol Group B) [nM] | inhibition at 0.1 µM [2, 5] [%] | IC50 [2] [nM] | inhibition at 0.1 µM [3] [%] | inhibition at 0.3 µM [3] [%] | IC50 [3] [nM] | inhibition at 0.3 µM ([4]; Protocol Group B) [%] | inhibition at 1 µM ([4]; concentration series) [%] | inhibition at 3.2 µM ([4]; concentration series) [%] | Ki ([4]; Protocol Group B) [nM] | further results
OC(Cn1c2c(c3cc(F)ccc31)C1CCCN1CC2)c1ccncc1 (single isomer, unassigned) [18b] | 14 | 63 | 74 | 87 | 65.8 | 19 | 357 | 14 | 18 | 2780 | 71 | 90 | 96 | 55.9 | inhibition at 0.01 µM ([1]; 10 nM compound, concentration series, read-out: Percentage inhibition of ligand binding, Adrenergic α1B, 10 nM): 17%; inhibition at 0.03 µM ([1]; 0.03 μM compound, concentration series, read-out: Percentage inhibition of ligand binding, Adrenergic α1B, 0.03 μM): 14%; inhibition at 0.1 µM ([1]; 0.1 μM compound, Protocol Group B, read-out: Percentage inhibition of ligand binding, Adrenergic α1B (0.1 μM)): 45%; inhibition at 3.2 µM ([1]; 3.2 μM compound, concentration series, read-out: Percentage inhibition of ligand binding, Adrenergic α1B, 3.2 μM): 96%; inhibition at 10 µM ([1]; 10 μM compound, concentration series, read-out: Percentage inhibition of ligand binding, Adrenergic α1B, 10 μM): 99%; inhibition at 0.3 µM ([2]; 0.3 μM compound, nor-epinephrine at EC80 (50 nM), read-out: Percentage inhibition, Adrenergic α1B): 46%; inhibition at 0.0032 µM ([4]; 3.2 nM compound, concentration series, read-out: Percentage inhibition of ligand binding, Adrenergic α2A, 3.2 nM): 8%; inhibition at 0.01 µM ([4]; 10 nM compound, concentration series, read-out: Percentage inhibition of ligand binding, Adrenergic α2A, 10 nM): 12%; inhibition at 0.03 µM ([4]; 0.03 μM compound, concentration series, read-out: Percentage inhibition of ligand binding, Adrenergic α2A, 0.03 μM): 27%; inhibition at 0.1 µM ([4]; 0.1 μM compound, Protocol Group B, read-out: Percentage inhibition of ligand binding, Adrenergic α2A (0.1 μM)): 45%; inhibition at 0.32 µM ([4]; 0.32 μM compound, concentration series, read-out: Percentage inhibition of ligand binding, Adrenergic α2A, 0.32 μM): 76%; inhibition at 10 µM ([4]; 10 μM compound, concentration series, read-out: Percentage inhibition of ligand binding, Adrenergic α2A, 10 μM): 99%
Cc1cc(C)c2c(c1)c1c(n2CC(C)(O)c2ccncc2)CCN2CCCC12 (single isomer, unassigned) [19a] | 7 | 93 | 96 | 95 | 7.5 | 45 | 107 | 13 | 23 | 1260 | 87 | 98 | 100 | 16.2 | inhibition at 0.00032 µM ([1]; 0.32 nM compound, concentration series, read-out: Percentage inhibition of ligand binding, Adrenergic α1B, 0.32 nM): 13%; inhibition at 0.001 µM ([1]; 1 nM compound, concentration series, read-out: Percentage inhibition of ligand binding, Adrenergic α1B, 1 nM): 2%; Percentage inhibition of ligand binding, Adrenergic α1B, 10 nM [1, 6]: 24%; Percentage inhibition of ligand binding, Adrenergic α1B, 0.032 μM [1, 7]: 61%; Percentage inhibition of ligand binding, Adrenergic α1B (0.1 μM) [1, 8]: 82%; Percentage inhibition, Adrenergic α1B ([2]; 0.3 μM compound, nor-epinephrine at EC80 (50 nM)): 74%; inhibition at 0.001 µM ([4]; 1 nM compound, concentration series, read-out: Percentage inhibition of ligand binding, Adrenergic α2A, 1 nM): 3%; Percentage inhibition of ligand binding, Adrenergic α2A, 3.2 nM ([4]; 3.2 nM compound, concentration series, 0.0032 µM): 0%; Percentage inhibition of ligand binding, Adrenergic α2A, 10 nM [4, 6]: 22%; Percentage inhibition of ligand binding, Adrenergic α2A, 0.032 μM [4, 7]: 49%; Percentage inhibition of ligand binding, Adrenergic α2A (0.1 μM) [4, 8]: 72%; Percentage inhibition of ligand binding, Adrenergic α2A, 0.32 μM ([4]; 0.32 μM compound, concentration series, 0.32 µM): 92%
